Measured values as given in patent publication US12351877B2, “Systems and methods for determining a treatment course of action” (Arizona Board of Regents on Behalf of the University of …, priority 2018, dated 2025).

How the values were obtained:
MCF7 cells = test: Live-cell TIRFM of SCABs before and after inhibiting contractility; assay type: cell-based, human; details: 25 uM ROCK inhibitor
Source text: (§1) The relationship between cortical contractility and membrane motility dynamics was further examined. Using live-cell Total Internal Reflection Fluorescence Microscopy (TIRFM), SCABs at the leading edge of MCF7 and T47D cells were imaged before and after inhibiting contractility using the ROCK inhibitor, Y-27632; the actin cytoskeleton was labeled with iRFP-Lifeact, and SCABs with MLC-mRuby2. […] In addition, the existence of SCABs, their contractile nature, and their suppressive effects were validated in two types of epithelial cells: MDCK canine kidney epithelial cells, and Caco-2 human intestinal epithelial cells (FIGS. 3c and 3d). […] ER is potentially enriching for SCABs by inducing the expression of actin regulators that promote SCAB formation.

T47D cells = test: as above; assay type: cell-based, human; details: 25 uM ROCK inhibitor
Source text: as §1

[1] = tested on: Caco-2 human intestinal epithelial cells; test: Leading edge kymography before and after dissolving SCABs; assay type: cell-based; details: 25 μM ROCK inhibitor, dissolution of SCABs
Source text: as §1

[2] = tested on: MDCK canine kidney epithelial cells; test: as above; assay type: cell-based; details: 25 μM ROCK inhibitor, dissolution of SCABs
Source text: as §1

In the case of `C[C@@H](N)[C@H]1CC[C@H](C(=O)Nc2ccncc2)CC1` [Y-27632], the SCABs (MCF7 cells) is reported as “dissolution of SCABs”, the “MLC at the leading edge” value (MCF7 cells; MLC-mRuby2) is reported as “loss of MLC” and the protrusive activity (MCF7 cells; iRFP-Lifeact) is reported as “rapid increase”. For the same compound, the SCABs (T47D cells) was “dissolution of SCABs”, the “MLC at the leading edge” value (T47D cells; MLC-mRuby2) was “loss of MLC” and the protrusive activity (T47D cells; iRFP-Lifeact) was “rapid increase”. For the same compound, the “motility dynamics of the leading edge” value [1] was “dramatically increased”, the “motility dynamics of the leading edge” value ([1]; listed as ROCK inhibitor) was “increased” and the “motility dynamics of the leading edge” value [2] was “dramatically increased”. For the same compound, the “motility dynamics of the leading edge” value ([2]; listed as ROCK inhibitor) was “increased”.
